Experimental data: patent US5364885A, “Reduction of hair growth” (priority 1992, dated 1994)
Where a name gives a salt, the structure may show the parent alone. Read-outs that look alike come from different tables or passages of the source.

Experiments:
[1] = tested on: hamster flank organ hair growth; experiment: Inhibition of hair growth: hamster flank organ hair mass after thirteen topical applications; assay type: in vivo, male intact Golden Syrian hamsters; details: 13 applications; for inhibition at 5 % strength / inhibition at 10 % strength / inhibition at 20 % strength / inhibition at 30 % strength: Mesocricetus auratus, pH 7-8, read-out: % Inhibition (± SEM)
Description: A vehicle or carrier was prepared having the following composition:
A group of male intact Golden Syrian hamsters was provided. These animals were considered acceptable models for human beard hair growth in that they display oval shaped flank organs, one on each side, each about 8 mm. in major diameter, which grow thick black and coarse hair similar to human beard hair. These organs produce hair in response to androgens in the hamster. The flank organs of each hamster were depilated by applying a thioglycolate based chemical depilatory (Surgex), and to one organ of each animal was applied 10-25 μl. of vehicle alone once a day, while to the other organ of each animal was applied an equal amount of vehicle containing the analog. After thirteen applications (one application per day for five days a week), the flank organs were shaved and the amount of recovered hair (hair mass) from each was weighed. Percent-reduction of hair growth was calculated by subtracting the hair mass (mg) value of the test compound treated side from the hair mass value of the vehicle treated side; the delta value obtained was then divided by the hair mass value of the vehicle treated side, and the resultant number was multiplied by 100.

[2] = tested on: hamster flank organ; details: topical; cited from earlier work
[3] = tested on: sebum excretion; details: topical, cited from earlier work
[4] = tested on: hair growth; details: intact males; Table 3, Group VI vs. Group X; cited from earlier work
[5] = tested on: animal sebaceous glands; details: female vs male; cited from earlier work
[6] = 5% by weight, 10-25 μl once a day, pH 7-8
[7] = 10% by weight, 10-25 μl once a day, pH 7-8
[8] = 20% by weight, 10-25 μl once a day, pH 7-8
[9] = 30% by weight, 10-25 μl once a day, pH 7-8
[10] = 5% by weight, 10-25 μl once a day, vs vehicle treated side
[11] = 10% by weight, 10-25 μl once a day, vs vehicle treated side
[12] = 20% by weight, 10-25 μl once a day, vs vehicle treated side
[13] = 30% by weight, 10-25 μl once a day, vs vehicle treated side

## CC(C)(CO)C(O)C(=O)NCCCO (racemic) [DL-PTYA, D, or DL, Pantothenyl alcohol]
[1]; [6]
  Hamster Flank Organ Hair Mass, Treated (± SEM): 2.670 ± .23 mg
[1]; [7]
  Hamster Flank Organ Hair Mass, Treated (± SEM): 1.490 ± .30 mg
[1]; [8]
  Hamster Flank Organ Hair Mass, Treated (± SEM): 1.450 ± .21 mg
[1]; [9]
  Hamster Flank Organ Hair Mass, Treated (± SEM): .708 ± .13 mg
[1]; [10]
  inhibition at 5 % strength: -8.28 ± 7.51%
[1]; [11]
  inhibition at 10 % strength: 40.3 ± 7.35%
[1]; [12]
  inhibition at 20 % strength: 51.1 ± 7.49%
[1]; [13]
  inhibition at 30 % strength: 70.8 ± 5.95%

## CCC[C@]1(O)CC[C@H]2[C@@H]3CCC4=CC(=O)CC[C@]4(C)[C@H]3CC[C@@]21C [17β-hydroxy-17α-propylandrost-4-en-3-one]
[2]
  reduction in hair growth of the hamster flank organ: substantial reduction in hair growth
  reduction in the size of the flank organ: reduction in the size of the flank organ

## CC(C)(CO)[C@@H](O)C(=O)NCCCO [D-PTYA, D, or DL, Pantothenyl alcohol]
[1]; [6]
  Hamster Flank Organ Hair Mass, Treated (± SEM): 1.069 ± .15 mg
[1]; [7]
  Hamster Flank Organ Hair Mass, Treated (± SEM): 1.095 ± .32 mg
[1]; [8]
  Hamster Flank Organ Hair Mass, Treated (± SEM): .899 ± .30 mg
[1]; [9]
  Hamster Flank Organ Hair Mass, Treated (± SEM): 1.069 ± .26 mg
[1]; [10]
  inhibition at 5 % strength: 55.9 ± 4.32%
[1]; [11]
  inhibition at 10 % strength: 48.3 ± 11%
[1]; [12]
  inhibition at 20 % strength: 31.4 ± 13.8%
[1]; [13]
  inhibition at 30 % strength: 34.8 ± 8.49%

## NCCC[C@](N)(C(=O)O)C(F)F [DFMO, α-difluoromethyl ornithine, reference compound]
[1]; 10% comparison composition, pH 4.0
  Hamster Flank Organ Hair Mass, Treated (± SEM): .631 ± .12 mg
[1]; 10% comparison composition, vs vehicle treated side, pH 4.0
  % Inhibition (± SEM): 66.10 ± 7.05%

## CC(C)(CO)[C@@H](O)C(=O)NCCC(=O)O [PTA, DPantothenic acid hemicalcium salt]
[1]; [6]
  Hamster Flank Organ Hair Mass, Treated (± SEM): .738 ± .13 mg
[1]; [7]
  Hamster Flank Organ Hair Mass, Treated (± SEM): .424 ± .11 mg
[1]; [8]
  Hamster Flank Organ Hair Mass, Treated (± SEM): .270 ± .12 mg
[1]; [9]
  Hamster Flank Organ Hair Mass, Treated (± SEM): .160 ± .06 mg
[1]; [10]
  inhibition at 5 % strength: 67.3 ± 5.81%
[1]; [11]
  inhibition at 10 % strength: 71.3 ± 8.96%
[1]; [12]
  inhibition at 20 % strength: 85.8 ± 5.75%
[1]; [13]
  inhibition at 30 % strength: 92.7 ± 2.76%

## CC(C)(CO)[C@H](O)C(=O)NCCC(=O)[O-].[Na+] [PTAss, D-Pantothenic acid monosodium salt]
[1]; [6]
  Hamster Flank Organ Hair Mass, Treated (± SEM): .644 ± .15 mg
[1]; [7]
  Hamster Flank Organ Hair Mass, Treated (± SEM): .364 ± .10 mg
[1]; [8]
  Hamster Flank Organ Hair Mass, Treated (± SEM): .500 ± .10 mg
[1]; [9]
  Hamster Flank Organ Hair Mass, Treated (± SEM): .396 ± .95 mg
[1]; [10]
  inhibition at 5 % strength: 72.6 ± 5.18%
[1]; [11]
  inhibition at 10 % strength: 80.1 ± 4.38%
[1]; [12]
  inhibition at 20 % strength: 74.2 ± 4.83%
[1]; [13]
  inhibition at 30 % strength: 79.8 ± 4.75%

## CC(=O)[C@H]1CC[C@H]2[C@@H]3CCC4=CC(=O)CC[C@]4(C)[C@H]3CC[C@]12C [progesterone]
[3]; females
  reducing sebum excretion rates: effective in reducing sebum excretion rates in females
[3]; males
  reducing sebum excretion rates: without effect in males
[4]
  effect on inhibition of hair growth: doubtful
[5]
  inhibition of testosterone metabolism and lipogenesis in sebaceous glands: effective in the female but not in the male
